In patent publication US8071810B2, “C5a receptor antagonists” (Jerini AG, priority 2005, dated 2011):
pIC50: −log10 of the molar value. Where two headings read alike, the source gives them in different places.

Target: T1, human C5a receptor (CD88) (Homo sapiens, UniProt P21730)
T1 construct: expressed in transfected cells; host or cells: rat basophilic leukemia (RBL) cells, stably transfected
T1 sequence (P21730 1-350): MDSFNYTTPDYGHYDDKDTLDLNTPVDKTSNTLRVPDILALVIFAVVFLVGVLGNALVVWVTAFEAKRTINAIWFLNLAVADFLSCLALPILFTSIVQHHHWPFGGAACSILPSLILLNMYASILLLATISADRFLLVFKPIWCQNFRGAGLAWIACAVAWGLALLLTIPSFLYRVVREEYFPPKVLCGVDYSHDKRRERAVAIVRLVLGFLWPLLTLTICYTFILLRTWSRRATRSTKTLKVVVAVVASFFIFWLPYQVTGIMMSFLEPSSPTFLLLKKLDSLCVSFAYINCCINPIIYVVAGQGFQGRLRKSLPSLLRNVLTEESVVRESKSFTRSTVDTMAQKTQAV
Assay: C5a induced enzyme (glucosaminidase) release assay in RBL cells expressing the human C5a receptor (Example 28)
Assay type: cell-based
Settings: RBL cells with human C5aR
Outline: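 Rat basophilic leukemia (RBL) cells expressing human C5a receptor, at 2×10^6 cells/ml, primed with cytochalasin B, then incubated with test compound 10 min at 37 °C.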

[1] = inhibition of C5a induced enzyme release, read-out: Activity-range (antagonistic activity, IC50 enzyme release)
[2] = read-out: IC50 for the inhibition of C5a induced enzyme release

Compound | pIC50 [1] | pIC50 [2]
CCc1ccc(N(Cc2ccc(C#N)cc2)C(=O)Nc2c(CC)c(N)cc(Cl)c2CC)cc1 [compound 113, 3-(3-amino-5-chloro-2,6-diethyl-phenyl)-1-(4-cyano-benzyl)-1-(4-ethyl-phenyl)-urea] | 5.30 to 6.70 | 
CCc1c(Cl)cc(NCC(=O)N(C)C)c(CC)c1NC(=O)N(Cc1ccc(OC)cc1)c1ccc(C(C)C)cc1 [compound 37, 2-{5-chloro-2,4-diethyl-3-[3-(4-isopropyl-phenyl)-3-(4-methoxy-benzyl)-ureido]-phenylamino}-N,N-dimethyl-acetamide] | 5.30 to 6.70 | 
CCc1ccc(Cl)c(CC)c1NC(=O)N(Cc1ccc(OC)cc1)c1ccc(C(C)C)cc1 [compound 24, 3-(3-Chlor-2,6-diethyl-phenyl)-1-(4-isopropyl-phenyl)-1-(4-methoxy-benzyl)-urea] |  | 5.98
CCc1c(N)cc(Cl)c(CC)c1NC(=O)N(Cc1ccc(C(F)(F)F)nc1)c1ccc(C(C)C)cc1 [compound 87, 3-(3-amino-5-chloro-2,6-diethyl-phenyl)-1-(4-isopropyl-phenyl)-1-(6-trifluoromethyl-pyridin-3-ylmethyl)-urea] | 5.30 to 6.70 | 
CCc1ccc(N)c(CC)c1NC(=O)N(Cc1ccc(C(F)(F)F)cc1)c1ccc(C(C)C)cc1 [compound 50, 3-(3-amino-2,6-diethyl-phenyl)-1-(4-isopropyl-phenyl)-1-(4-trifluoromethyl-benzyl)-urea] | 5.30 to 6.70 | 
CCc1c(N)cc(Cl)c(CC)c1NC(=O)N(Cc1ccc(C)nc1)c1ccc(OC)c2ccccc12 |  | 7.26
CCc1c(N)cc(Cl)c(CC)c1NC(=O)N(c1ccc(OC)cc1CO)[C@@H](C)c1ccc(Cl)cc1 [compound 109, (S)-3-(3-amino-5-chloro-2,6-diethyl-phenyl)-1-[1-(4-chloro-phenyl)-ethyl]-1-(2-hydroxymethyl-4-methoxy-phenyl)-urea] | 5.30 to 6.70 | 
CCc1ccc(N(Cc2ccc(F)cc2)C(=O)Nc2c(CC)c(N)cc(Cl)c2CC)cc1 [compound 96, 3-(3-amino-5-chloro-2,6-diethyl-phenyl)-1-(4-ethyl-phenyl)-1-(4-fluoro-benzyl)-urea] | 6.70 to 7.22 | 
CCc1c(N)cc(Cl)c(CC)c1NC(=O)N(c1ccc(OC)cc1F)[C@@H](C)c1ccc(Cl)cc1 |  | 7.51
CCc1c(N)cc(Cl)c(CC)c1NC(=O)N(Cc1ccc(OC)nc1)c1ccc(C(C)C)cc1 [compound 47, 3-(3-amino-5-chloro-2,6-diethyl-phenyl)-1-(4-isopropyl-phenyl)-1-(6-methoxy-pyridin-3-ylmethyl)-urea] | 5.30 to 6.70 | 
CCc1c(Cl)cc(NCc2ccco2)c(CC)c1NC(=O)N(Cc1ccc(OC)cc1)c1ccc(C(C)C)cc1 [compound 36, 3-{3-Chloro-2,6-diethyl-5-[(furan-2-ylmethyl)-amino]-phenyl}-1-(4-isopropyl-phenyl)-1-(4-methoxy-benzyl)-urea] | 5.30 to 6.70 | 
CCc1c(N)cc(Cl)c(CC)c1NC(=O)N(Cc1cnc(C)cn1)c1ccc(C(C)C)cc1 [compound 75, 3-(3-amino-5-chloro-2,6-diethyl-phenyl)-1-(4-isopropyl-phenyl)-1-(5-methyl-pyrazin-2-ylmethyl)-urea] | 6.70 to 7.22 | 
CCc1ccc(NCC(N)=O)c(CC)c1NC(=O)N(Cc1ccc(OC)cc1)c1ccc(C(C)C)cc1 [compound 29, 2-{2,4-diethyl-3-[3-(4-isopropyl-phenyl)-3-(4-methoxy-benzyl)-ureido]-phenylamino}-acetamide] | 5.30 to 6.70 | 
CCc1c(N)cc(Cl)c(CC)c1NC(=O)N(Cc1ccc(Cl)cc1)c1ccc(OC)c(OC)c1 [compound 114, 3-(3-amino-5-chloro-2,6-diethyl-phenyl)-1-(4-chloro-benzyl)-1-(3,4-dimethoxy-phenyl)-urea] | 5.30 to 6.70 | 
CCc1ccc(N(Cc2ccc(C)cc2)C(=O)Nc2c(CC)ccc(N)c2CC)cc1 [compound 54, 3-(3-amino-2,6-diethyl-phenyl)-1-(4-ethyl-phenyl)-1-(4-methyl-benzyl)-urea] | 5.30 to 6.70 | 
CCc1c(Cl)cc(NCC(=O)OC(C)(C)C)c(CC)c1NC(=O)N(Cc1ccc(OC)cc1)c1ccc(C(C)C)cc1 [compound 45, {5-chloro-2,4-diethyl-3-[3-(4-isopropyl-phenyl)-3-(4-methoxy-benzyl)-ureido]-phenylamino} acetic acid tert-butyl ester] | 6.70 to 7.22 | 
CCc1c(N)cc(Cl)c(CC)c1NC(=O)N(c1ccc(NC)cc1)[C@@H](C)c1ccc(Cl)cc1 |  | 8.52
CCc1ccc(N(Cc2ccc(Cl)cc2)C(=O)Nc2c(CC)c(N)cc(Cl)c2CC)cc1 |  | 7.07
CCc1cccc(CC)c1NC(=O)N(Cc1ccc(OC)cc1)c1ccc(C(C)C)cc1 [compound 26, 3-(2,6-diethyl-phenyl)-1-(4-isopropyl-phenyl)-1-(4-methoxy-benzyl)-urea] |  | 6.28
CCc1c(N)cc(Cl)c(CC)c1NC(=O)N(c1ccc(C(C)C)cc1)[C@H](C)c1ccc(C)cc1 [compound 57, (R)-3-(3-Amino-5-chloro-2,6-diethyl-phenyl)-1-(4-isopropyl-phenyl)-1-(1-p-tolyl-ethyl)-urea] | 5.30 to 6.70 | 
CCc1c(N)cc(Cl)c(CC)c1NC(=O)N(Cc1ccc(Cl)cc1)c1ccc(C(C)C)cc1 [compound 72, 3-(3-amino-5-chloro-2,6-diethyl-phenyl)-1-(4-chlor-benzyl)-1-(4-isopropyl-phenyl)-urea] | 6.70 to 7.22 | 
CCc1c(N)cc(Cl)c(CC)c1NC(=O)N(c1ccc(C(C)C)cc1)[C@@H](C)c1ccc(C)cc1 [compound 73, (S)-3-(3-amino-5-chloro-2,6-diethyl-phenyl)-1-(4-isopropyl-phenyl)-1-(1-p-tolyl-ethyl)-urea] |  | 7.49
CCc1c(N)cc(Cl)c(CC)c1NC(=O)N(c1ccc(NC)cc1)C(C)c1ccc2c(c1)ncn2C (centres unmarked) [compound 138, 3-(3-amino-5-chloro-2,6-diethyl-phenyl)-1-(4-methylamino-phenyl)-1-[1-(1-methyl-1H-benzoimidazol-5-yl)-ethyl]-urea] | 6.70 to 7.22 | 
CCc1c(N)cc(Cl)c(CC)c1NC(=O)N(Cc1ccccc1)c1ccc(NC)cc1 [compound 129, 3-(3-amino-5-chloro-2,6-diethyl-phenyl)-1-benzyl-1-(4-methylamino-phenyl)-urea] | 6.70 to 7.22 | 
CCc1c(N)cc(Cl)c(CC)c1NC(=O)N(Cc1ccc(Cl)cc1)c1ccc(N(C)C)cc1 [compound 127, 3-(3-amino-5-chloro-2,6-diethyl-phenyl)-1-(4-chloro-benzyl)-1-(4-dimethylamino-phenyl)-urea] | 5.30 to 6.70 | 
CCc1c(N)cc(Cl)c(CC)c1NC(=O)N(c1ccc(C(C)C)cc1)[C@H](C)c1ccc(OC)cc1 [compound 56, (R)-3-(3-amino-5-chloro-2,6-diethyl-phenyl)-1-(4-isopropyl-phenyl)-1-[1-(4-methoxy-phenyl)ethyl]-urea] |  | 6.21
